ChEMBL document CHEMBL5728826, “Benzimidazole compounds and derivatives as EGFR inhibitors” (2021)

Biological target: Epidermal growth factor receptor (Homo sapiens, UniProt P00533)
Experiment: Biochemical EGFR Inhibition Assays ([…]): 5 μL of EGFR enzyme form in assay buffer (50 mM HEPES pH 7.3, 10 mM MgCl2, 1 mM EGTA, 0.01% Tween 20, 2 mM DTT) are dispensed into columns 1-23, than 5 μL of ATP and ULight-poly-GT substrate (PerkinElmer; TRF0100-M) mix in assay buffer is added to all wells (final assay concentration of the ULight-poly-GT substrate 200 nM). Each of the different …

Sequence of Epidermal growth factor receptor (P00533 whole entry): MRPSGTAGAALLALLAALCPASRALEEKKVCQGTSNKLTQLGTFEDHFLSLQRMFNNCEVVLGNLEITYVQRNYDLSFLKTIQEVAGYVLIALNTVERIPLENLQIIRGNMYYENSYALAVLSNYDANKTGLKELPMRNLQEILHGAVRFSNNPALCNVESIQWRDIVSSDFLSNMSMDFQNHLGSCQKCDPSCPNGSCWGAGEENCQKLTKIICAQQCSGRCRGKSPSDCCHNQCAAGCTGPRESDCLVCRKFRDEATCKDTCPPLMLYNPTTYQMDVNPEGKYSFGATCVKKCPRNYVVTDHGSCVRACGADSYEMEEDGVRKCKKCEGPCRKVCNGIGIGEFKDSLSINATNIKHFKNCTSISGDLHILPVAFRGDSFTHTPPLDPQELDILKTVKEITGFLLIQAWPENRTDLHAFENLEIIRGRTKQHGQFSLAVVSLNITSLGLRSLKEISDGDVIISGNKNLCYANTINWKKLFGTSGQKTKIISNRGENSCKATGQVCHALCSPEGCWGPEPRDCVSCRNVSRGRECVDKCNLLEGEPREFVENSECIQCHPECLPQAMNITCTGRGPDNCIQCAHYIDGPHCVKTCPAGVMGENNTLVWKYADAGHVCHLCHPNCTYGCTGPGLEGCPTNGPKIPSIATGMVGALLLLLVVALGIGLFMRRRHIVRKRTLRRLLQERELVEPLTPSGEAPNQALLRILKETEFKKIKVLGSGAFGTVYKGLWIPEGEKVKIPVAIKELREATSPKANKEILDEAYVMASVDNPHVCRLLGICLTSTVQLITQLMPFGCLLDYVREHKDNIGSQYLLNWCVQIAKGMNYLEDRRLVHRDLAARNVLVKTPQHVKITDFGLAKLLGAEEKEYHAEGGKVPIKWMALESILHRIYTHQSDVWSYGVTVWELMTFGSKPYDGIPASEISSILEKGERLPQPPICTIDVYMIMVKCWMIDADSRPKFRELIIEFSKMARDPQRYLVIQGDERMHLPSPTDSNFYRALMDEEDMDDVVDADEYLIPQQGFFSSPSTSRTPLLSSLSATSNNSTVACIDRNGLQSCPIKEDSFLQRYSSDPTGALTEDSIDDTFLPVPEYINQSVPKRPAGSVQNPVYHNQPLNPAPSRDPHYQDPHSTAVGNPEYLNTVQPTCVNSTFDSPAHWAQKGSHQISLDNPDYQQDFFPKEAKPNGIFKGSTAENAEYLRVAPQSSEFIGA

IC50 [nM] | Compound
> 100000 | Cn1cc(-c2cc(C(=O)/N=c3\[nH]c4ccccc4n3CC(C)(C)O)ccn2)cn1
217 | COc1ccncc1-c1cc(C(=O)/N=c2\[nH]c3cc(C4CCN(C(C)=O)CC4)ccc3n2CC(C)(C)O)ccn1
